This note sets out measurements from patent US20230118497A1, “PYRAZOLE-CONTAINING POLYCYCLIC DERIVATIVE INHIBITOR, PREPARATION METHOD THEREFOR AND APPLICATION THEREOF” (Shanghai Hansoh Biomedical Co., Ltd., priority 2019, published 2023).

Holding throughout (format): in vitro ADME
Series [1] is described as follows: Plasma protein binding rate (human). To be noted: 37° C. 6 h. The protocol:
(§1) Test Example 6. Assay of Plasma Protein Binding Rate
(§2) The objective of the experiment is to determine the plasma protein binding of the compounds of the Examples in plasma.
(§3) The compound of the Example was formulated into 1 mM solution A with DMSO;
(§4) The solution A was added to the plasma solution to obtain 5 μM solution B;
(§5) 1) 200 μL of solution B was added to the inside of the membrane;
(§6) 2) […] of PBS was added to the outside of the membrane;
(§7) 3) Incubation in a water bath at 37° C. for 6 h;
(§8) 4) The sample was diluted and analyzed by mass spectrometry.

The target of series [2] is T1, CYP450 enzyme isoform 2D6 (Homo sapiens, UniProt P10635).
T1 construct: single-point method using human liver microsome incubation system; from tissue; host or cells: human liver microsomes
In words: CYP enzyme single-point inhibition assay, 2D6. As to conditions: human liver microsome, single-point method. The procedure:
(§9) Test Example 7. CYP Enzyme Single-Point Inhibition Assay
(§10) The inhibition of the compounds on CYP450 enzyme isoformwas rapidly predicted by single-point method using human liver microsome incubation system.
(§11) 2.5 mM NADPH: 4.165 mg of NADPH (reduced nicotinamide adenine dinucleotide phosphate) was weighed, followed by addition of 100 mM phosphate buffer to 2 mL. 0.25 mg/mL microsome solution: 4 mL of 100 mM phosphate buffer was added to 50 μL of 20 mg/mL microsome solution and mixed well.
(§12) The test compound of the Example was weighed, diluted to 10 mM with DMSO and then to 100 μM with 100 mM phosphate buffer.
(§13) 1. 40 μL of liver microsome, 10 μL of substrate and 10 μL of the test compound were added to a 96-well plate and pre-incubated for 3 min.
(§14) 2. 40 μL of NADPH was added.
(§15) 3. 300 μL of acetonitrile stop solution containing internal standard was added at 20 min.
(§16) 4. The sample was centrifuged and injected.

Series [3] concerns the target T2, CYP450 enzyme isoform 1A2 (Homo sapiens, UniProt P05177).
T2 construct: single-point method using human liver microsome incubation system; from tissue; host or cells: human liver microsomes
T2 sequence (P05177 1-516): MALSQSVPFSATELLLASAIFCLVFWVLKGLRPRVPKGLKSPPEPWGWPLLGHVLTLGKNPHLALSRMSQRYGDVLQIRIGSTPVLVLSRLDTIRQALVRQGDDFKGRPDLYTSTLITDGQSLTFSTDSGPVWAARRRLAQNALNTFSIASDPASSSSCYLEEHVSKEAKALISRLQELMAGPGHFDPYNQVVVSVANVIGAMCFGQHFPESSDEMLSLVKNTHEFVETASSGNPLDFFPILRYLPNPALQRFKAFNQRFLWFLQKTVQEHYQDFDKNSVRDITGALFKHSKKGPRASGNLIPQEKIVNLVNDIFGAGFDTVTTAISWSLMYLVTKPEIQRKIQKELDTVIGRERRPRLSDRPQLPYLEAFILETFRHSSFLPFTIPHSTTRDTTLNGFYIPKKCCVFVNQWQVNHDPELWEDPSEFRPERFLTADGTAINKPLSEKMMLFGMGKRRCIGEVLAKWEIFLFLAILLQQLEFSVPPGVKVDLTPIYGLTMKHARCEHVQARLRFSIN
Kind of series: CYP enzyme single-point inhibition assay, 1A2. To be noted: human liver microsome, single-point method. The protocol: as §9, §10, §11, §12, §13, §14, §15, §16
A general note: Microsomes from liver hold many membrane-bound enzymes, among them those of drug oxidation.

The nature of series [4]: Plasma protein binding rate (dog). To be noted: 37° C. 6 h. The procedure:
as §1, §2, §3, §4, §5, §6, §7, §8

A short description of series [5]: Metabolic stability in liver microsome (dog). To be noted: dog liver microsome 0.5 mg/mL, compound 1 μM; for half-life at 1 μM: liver microsomes, NADPH/UDPGA. The protocol: Test Example 5. Assay of Metabolic Stability in Liver Microsome
The objective of the experiment is to determine the stability of the compounds of the Examples in liver microsome of mouse, rat, dog and human.
Formulation of the working solution of the compound: The stock solution of the compound was added to phosphate buffer, and the final concentration was 20 μM.
Liver microsome was diluted with 100 mM phosphate buffer to obtain a final concentration of 0.625 mg/mL.
NADPH (reduced nicotinamide adenine dinucleotide phosphate) and UDPGA (uridine diphosphate glucuronic acid) were weighed respectively, followed by addition of 100 mM phosphate buffer. The final concentrations were 20 mM.
1 mg of Alamethicin was weighed, to which 200 μL of DMSO was added to obtain a 5 mg/mL solution. The solution was diluted with phosphate buffer to obtain a final concentration of 50 μg/mL.
2.5 Formulation of the reaction stop solution Stop solution: Cold acetonitrile containing 100 ng/mL labetalol hydrochloride and 400 ng/mL tolbutamide as internal standards.
400 μL of the prepared liver microsome, 25 μL of the working solution of the compound and 25 μL of Alamethicin were added to a 96-well plate successively, which was then pre-incubated at 37° C. for 10 min. 50 μL of the prepared NADPH/UDPGA was added to initiate the reaction, and the plate was incubated at 37° C. The total volume of the reaction system was 500 μL. The final contents of the components were as follows: […]

pIC50: −log10 of the molar value. Where only a bound is given, the exact number is not on record here.

T1 sequence (P10635 whole entry, canonical isoform): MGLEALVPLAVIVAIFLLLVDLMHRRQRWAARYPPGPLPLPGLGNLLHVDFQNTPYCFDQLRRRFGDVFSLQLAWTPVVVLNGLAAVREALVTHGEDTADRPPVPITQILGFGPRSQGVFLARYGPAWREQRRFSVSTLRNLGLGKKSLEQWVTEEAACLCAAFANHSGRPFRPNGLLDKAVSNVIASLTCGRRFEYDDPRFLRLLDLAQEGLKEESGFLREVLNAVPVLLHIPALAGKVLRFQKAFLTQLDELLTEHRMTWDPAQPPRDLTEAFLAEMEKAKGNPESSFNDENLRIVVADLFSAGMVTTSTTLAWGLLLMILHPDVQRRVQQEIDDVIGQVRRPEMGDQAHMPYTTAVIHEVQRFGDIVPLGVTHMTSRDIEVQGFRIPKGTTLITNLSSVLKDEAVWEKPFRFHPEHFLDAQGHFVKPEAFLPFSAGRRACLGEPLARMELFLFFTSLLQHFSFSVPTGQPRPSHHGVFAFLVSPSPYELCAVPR

One may read the fraction unbound as free concentration divided by total concentration. Lower therefore signals little free substance. As a reminder, the pIC50 is the IC50 on a negative log10 scale, so that one unit is a factor of ten. A low value points to a high IC50. As to `CCc1cc2n(CC(=O)Nc3ccc(F)cn3)c(=O)c3ccc(C(F)(F)F)nc3n2n1` [Example 34, 2-(2-Ethyl-5-oxo-8-(trifluoromethyl)pyrazolo[1,5-a]pyrido[3,2-e]pyrimidin-4(5H)-yl)-N-(5-fluoropyridin-2-yl)acetamide], the figures for the fraction unbound at 6 h, 5 μM in series [1] and in series [4] were 0.015 and 0.032, respectively. Moreover, the pIC50 was < 4.00 in series [2] and 4.60 in series [3].

The half-life is the time in which the quantity being followed falls by half. As to `O=C(Cn1c(=O)c2ccc(C(F)(F)F)nc2n2nc(Br)cc12)Nc1ccc(F)cn1` [Example 61-A, 2-(2-bromo-5-oxo-8-(trifluoromethyl)pyrazolo[1,5-a]pyrido[3,2-e]pyrimidin-4(5H)-yl)-N-(5-fluoropyridin-2-yl)acetamide], the “Remaining (%, 60 min)” value in series [5] is given as 96.0%. This molecule had a half-life at 1 μM in series [5] of 15.6 h. Moreover, the fraction unbound at 6 h, 5 μM was found to be 0.016 in series [1] and 0.037 in series [4]. The figures for the pIC50 in series [2] and in series [3] were < 4.00 and 4.14, respectively.

For `N#Cc1cc2n(CC(=O)Nc3ccc(F)cn3)c(=O)c3ccc(C(F)(F)F)nc3n2n1` [Example 68, 2-(2-Cyano-5-oxo-8-(trifluoromethyl)pyrazolo[1,5-a]pyrido[3,2-e]pyrimidin-4(5H)-yl)-N-(5-fluoropyridin-2-yl)acetamide], the “Remaining (%, 60 min)” value in series [5] is recorded as 99.0%. In addition, in series [5], the half-life at 1 μM stood at 22.5 h. Moreover, the fraction unbound at 6 h, 5 μM was determined as 0.066 in series [1] and 0.084 in series [4]. Further, the pIC50 in series [2] and in series [3] was < 4.00 throughout.

Regarding `O=C(Cn1c(=O)c2ccc(C(F)(F)F)nc2n2nccc12)Nc1ccc(F)cn1` [Example 78, N-(5-Fluoropyridin-2-yl)-2-(5-oxo-8-(trifluoromethyl)pyrazolo[1,5-a]pyrido[3,2-e]pyrimidin-4(5H)-yl)acetamide], the “Remaining (%, 60 min)” value in series [5] is given as 93.4%. Further, in series [5], the half-life at 1 μM stood at 11.2 h. For the same molecule, the fraction unbound at 6 h, 5 μM is 0.103 in series [1] and 0.147 in series [4]. Further, the pIC50 in series [2] and in series [3] was < 4.00 in each case.

Take `N#Cc1cnn2c3nc(C(F)(F)F)ccc3c(=O)n(CC(=O)Nc3ccc(F)cn3)c12` [Example 80, 2-(3-Cyano-5-oxo-8-(trifluoromethyl)pyrazolo[1,5-a]pyrido[3,2-e]pyrimidin-4(5H)-yl)-N-(5-fluoropyridin-2-yl)acetamide]: the fraction unbound at 6 h, 5 μM in series [1] and in series [4] was 0.135 each time.
